From ChEMBL document CHEMBL1201862, “PubChem BioAssay data set” (2004)
Several values for one entry are separate records, joined by “and”; a condition that tells them apart may be missing. Equal entries are not always repeated. Activity calls are given as the source filed them.

Assays:
[1] = target: T1, Heat shock factor protein 1 (Mus musculus, UniProt P38532); experiment: HSF1 potentiators in luciferase reporter cells, confirmation, cell-based, NIH3T3, luminescence, dose retest (AID 435004); format: functional;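 further: stress induced by proteasome inhibitor MG132 added 30 min after compound; luciferase reporter driven by HSF1 response element in NIH3T3 cells; actives raise luminescence as potentiators of the MG132 stress response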
T1 sequence (P38532 whole entry): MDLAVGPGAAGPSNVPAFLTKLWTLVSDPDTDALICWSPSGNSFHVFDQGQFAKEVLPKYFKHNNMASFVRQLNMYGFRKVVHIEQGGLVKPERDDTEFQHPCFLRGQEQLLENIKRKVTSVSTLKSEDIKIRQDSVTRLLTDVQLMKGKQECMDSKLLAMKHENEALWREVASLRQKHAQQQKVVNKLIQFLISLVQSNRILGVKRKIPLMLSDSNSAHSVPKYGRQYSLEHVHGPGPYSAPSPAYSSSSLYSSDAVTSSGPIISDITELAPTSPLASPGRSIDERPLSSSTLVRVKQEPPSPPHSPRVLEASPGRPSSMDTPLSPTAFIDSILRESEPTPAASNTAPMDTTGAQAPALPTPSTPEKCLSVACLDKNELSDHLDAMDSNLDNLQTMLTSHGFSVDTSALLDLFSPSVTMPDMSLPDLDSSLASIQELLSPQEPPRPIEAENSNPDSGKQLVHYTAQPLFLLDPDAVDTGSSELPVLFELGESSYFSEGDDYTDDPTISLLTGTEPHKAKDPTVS

[2] = target: T2, Cytochrome P450 1A2 (Homo sapiens, UniProt P05177);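 further: PubChem cytochrome P450 panel assay, CYP1A2 panel member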
T2 sequence (P05177 whole entry): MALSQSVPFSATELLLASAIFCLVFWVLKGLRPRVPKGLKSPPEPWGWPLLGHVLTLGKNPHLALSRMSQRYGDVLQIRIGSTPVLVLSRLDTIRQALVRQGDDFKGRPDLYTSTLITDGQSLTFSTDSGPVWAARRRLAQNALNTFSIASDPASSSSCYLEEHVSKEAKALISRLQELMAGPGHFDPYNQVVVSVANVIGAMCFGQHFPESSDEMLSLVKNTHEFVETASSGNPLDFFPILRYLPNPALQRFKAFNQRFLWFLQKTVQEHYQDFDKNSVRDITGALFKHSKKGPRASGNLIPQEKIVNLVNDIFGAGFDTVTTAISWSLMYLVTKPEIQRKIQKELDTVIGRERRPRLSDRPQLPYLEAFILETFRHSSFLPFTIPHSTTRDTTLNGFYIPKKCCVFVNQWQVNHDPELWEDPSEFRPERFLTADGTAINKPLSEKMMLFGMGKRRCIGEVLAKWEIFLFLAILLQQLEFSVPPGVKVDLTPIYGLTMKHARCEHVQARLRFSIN

[3] = target: Cytochrome P450 2D6 (Homo sapiens, UniProt P10635)
Chain of Cytochrome P450 2D6 (P10635 whole entry): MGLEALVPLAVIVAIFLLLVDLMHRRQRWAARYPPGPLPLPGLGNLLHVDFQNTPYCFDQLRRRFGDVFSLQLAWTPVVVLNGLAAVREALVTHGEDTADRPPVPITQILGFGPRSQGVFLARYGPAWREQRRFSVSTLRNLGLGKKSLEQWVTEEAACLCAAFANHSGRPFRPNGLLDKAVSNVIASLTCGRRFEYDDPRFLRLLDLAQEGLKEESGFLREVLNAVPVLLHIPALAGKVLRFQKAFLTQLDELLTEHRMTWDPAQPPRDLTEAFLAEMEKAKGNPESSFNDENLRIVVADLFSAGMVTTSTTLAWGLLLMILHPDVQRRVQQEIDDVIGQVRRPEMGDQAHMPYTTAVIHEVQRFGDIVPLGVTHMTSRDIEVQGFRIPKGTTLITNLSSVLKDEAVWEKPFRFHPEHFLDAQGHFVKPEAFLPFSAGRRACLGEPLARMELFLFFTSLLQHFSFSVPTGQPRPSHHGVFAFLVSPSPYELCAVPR

[4] = Luminescence Cell-Based Dose Retest to Confirm Inhibitors of Cancer Stem Cells. [Related pubchem assays (depositor defined):AID2717, AID2721]; format: functional; details: Homo sapiens
[5] = target: Cytochrome P450 2C9 (Homo sapiens, UniProt P11712)
Chain of Cytochrome P450 2C9 (P11712 whole entry): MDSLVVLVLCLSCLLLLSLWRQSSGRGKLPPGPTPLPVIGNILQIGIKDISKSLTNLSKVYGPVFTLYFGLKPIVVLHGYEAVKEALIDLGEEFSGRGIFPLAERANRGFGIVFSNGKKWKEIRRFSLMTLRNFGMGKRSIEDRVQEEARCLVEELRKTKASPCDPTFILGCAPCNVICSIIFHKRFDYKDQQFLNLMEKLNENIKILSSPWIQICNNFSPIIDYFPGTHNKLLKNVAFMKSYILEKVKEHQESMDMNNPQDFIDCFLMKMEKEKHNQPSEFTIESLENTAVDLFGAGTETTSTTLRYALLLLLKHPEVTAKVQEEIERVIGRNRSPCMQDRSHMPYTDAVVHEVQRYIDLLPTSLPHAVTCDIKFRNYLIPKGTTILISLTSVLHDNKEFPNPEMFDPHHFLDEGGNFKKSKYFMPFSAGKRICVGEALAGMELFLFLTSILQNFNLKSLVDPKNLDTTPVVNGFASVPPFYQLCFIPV

[6] = target: Cytochrome P450 2C19 (Homo sapiens, UniProt P33261); experiment: Cytochrome panel assay with activity outcomes. Panel member name: p450-cyp2c19 Compounds with AC50 equal or less than 10 uM are considered active; format: functional; details: read-out: AC50
Chain of Cytochrome P450 2C19 (P33261 whole entry): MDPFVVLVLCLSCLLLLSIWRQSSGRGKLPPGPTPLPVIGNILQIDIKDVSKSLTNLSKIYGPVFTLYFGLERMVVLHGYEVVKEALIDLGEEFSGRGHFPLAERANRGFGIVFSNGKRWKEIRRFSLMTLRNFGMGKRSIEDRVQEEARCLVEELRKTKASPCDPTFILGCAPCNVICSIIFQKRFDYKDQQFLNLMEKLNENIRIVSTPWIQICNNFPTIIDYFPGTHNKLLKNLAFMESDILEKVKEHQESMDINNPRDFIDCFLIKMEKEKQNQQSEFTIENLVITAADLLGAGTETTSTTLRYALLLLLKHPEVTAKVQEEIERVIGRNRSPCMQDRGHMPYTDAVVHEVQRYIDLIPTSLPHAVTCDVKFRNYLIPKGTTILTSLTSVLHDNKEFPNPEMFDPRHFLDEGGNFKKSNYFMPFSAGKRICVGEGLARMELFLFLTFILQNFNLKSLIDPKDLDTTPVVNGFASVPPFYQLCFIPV

[7] = target: Luciferin 4-monooxygenase (Photinus pyralis, UniProt P08659); experiment: firefly luciferase enzyme inhibitors, dose response, biochemical, luminescence (AID 1891)
Chain of Luciferin 4-monooxygenase (P08659 whole entry): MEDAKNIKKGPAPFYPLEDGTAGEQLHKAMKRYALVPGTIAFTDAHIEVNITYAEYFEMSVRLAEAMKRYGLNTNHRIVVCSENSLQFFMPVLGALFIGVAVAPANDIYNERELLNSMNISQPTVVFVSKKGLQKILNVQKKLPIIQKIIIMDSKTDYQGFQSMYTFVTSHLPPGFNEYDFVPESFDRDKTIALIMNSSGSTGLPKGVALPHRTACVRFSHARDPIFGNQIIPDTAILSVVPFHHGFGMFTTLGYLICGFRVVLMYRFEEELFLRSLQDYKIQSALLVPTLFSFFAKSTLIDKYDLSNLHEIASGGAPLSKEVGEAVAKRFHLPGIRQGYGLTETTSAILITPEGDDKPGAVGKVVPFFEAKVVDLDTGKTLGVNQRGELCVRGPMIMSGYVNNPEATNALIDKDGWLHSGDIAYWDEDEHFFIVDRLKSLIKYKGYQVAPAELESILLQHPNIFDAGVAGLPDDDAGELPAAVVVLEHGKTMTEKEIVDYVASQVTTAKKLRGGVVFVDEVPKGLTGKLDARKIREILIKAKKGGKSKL

[8] = Luminescence Cell-Based Dose Confirmation HTS to Identify Inhibitors of Platelet Dense Granule Release. [Related pubchem assays: 1663 (Primary HTS), 1678 (Summary of Project)]; format: functional
[9] = target: Cytochrome P450 3A4 (Homo sapiens, UniProt P08684);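 further: CYP3A4 tested as one member of a cytochrome P450 panel screen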
Chain of Cytochrome P450 3A4 (P08684 whole entry): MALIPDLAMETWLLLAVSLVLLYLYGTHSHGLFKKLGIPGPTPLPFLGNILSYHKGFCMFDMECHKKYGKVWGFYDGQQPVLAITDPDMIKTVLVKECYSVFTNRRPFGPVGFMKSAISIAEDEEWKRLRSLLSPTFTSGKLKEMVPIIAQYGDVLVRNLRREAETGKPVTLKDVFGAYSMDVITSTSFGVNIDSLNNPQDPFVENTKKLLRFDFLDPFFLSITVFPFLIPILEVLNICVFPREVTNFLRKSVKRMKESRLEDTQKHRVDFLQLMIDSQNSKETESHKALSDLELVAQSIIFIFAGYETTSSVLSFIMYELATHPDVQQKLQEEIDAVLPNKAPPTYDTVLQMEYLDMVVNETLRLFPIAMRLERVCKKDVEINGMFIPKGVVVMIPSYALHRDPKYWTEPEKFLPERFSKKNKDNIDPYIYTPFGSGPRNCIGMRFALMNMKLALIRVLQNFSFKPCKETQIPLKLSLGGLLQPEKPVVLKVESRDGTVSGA

[10] = inhibitors of SNCA 5'UTR-driven reporter translation, confirmation, H4 neuroglioma cells, luminescence (AID 1988); format: functional, cell-based
[11] = Luminescence Cell-Based Dose Response HTS to Identify Inhibitors of 5'UTR Stem-Loop Driven Prion Protein mRNA Translation in H4 Neuroglioblastoma Cells. [Related pubchem assays: 1827 (Project Summary), 1813 (Primary HTS)]; format: functional
[12] = inhibitors of firefly luciferase expression or activity, dose response, H4 neuroglioma cells, luminescence (AID 1990); format: functional, cell-based
[13] = cytotoxicity toward NIH3T3 fibroblasts, dose response, counter-screen, cell-based, ATP luminescence, mouse fibroblasts (AID 2010); format: functional;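 further: cells exposed to compound for about 90 hours before reading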
[14] = inhibitors of intracellular T. cruzi replication, confirmation, NIH3T3 host cells, beta-gal luminescence (AID 2044); format: functional, cell-based;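 further: intracellular parasites grown in NIH/3T3 mouse fibroblasts as host cells; luminescent beta-galactosidase reporter signal from transgenic T. cruzi replicating inside host cells; inhibitors lower the luminescence signal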
[15] = tested on: Streptococcus sp. 'group A'; experiment: growth inhibition of control SK(-) GAS strain, dose response, counter-screen for streptokinase expression inhibitor project, luminescence, kanamycin, BacTiterGlo, confirmation (AID 1900); format: functional, organism-based
[16] = tested on: Streptococcus; experiment: Group A Streptococcus viability loss, dose response, counter-screen for streptokinase expression inhibitor project, luminescence, BacTiterGlo (AID 1915); format: functional, organism-based;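 further: potency for reduction of bacterial viability or growth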

CCC(=O)Nc1cccc(C(=O)/C=C/c2ccc(F)cc2)c1
EC50 [1]: 11.6 µM (active)

COC(=O)[C@@]1(Cc2ccccc2)[C@H]2c3cc(C(=O)N4CCCC4)n(Cc4ccc(O)c(OC)c4)c3C[C@H]2CN1C(=O)c1ccccc1
AC50 [2]: 25.1 µM (inconclusive) | AC50 [3]: 20 µM (inconclusive)

CCCCc1ccc(NC(=O)Nc2cc(C)nn2C)cc1
AC50 [4]: 3.31 µM (active)

Cc1ccc(C(c2c(C)nn(-c3ccccc3)c2N)c2c(C)nn(-c3ccccc3)c2N)cc1
EC50 [1]: > 260 µM (inactive)

COc1cccc(Cn2c(=O)cnc3cnc(N4CCN(C)CC4)nc32)c1
AC50 [2]: 25.1 µM (inconclusive) | AC50 [5]: 25.1 µM (inconclusive) | AC50 [3]: 20 µM (inconclusive)

C[C@@H](C(=O)Nc1ccc2ccccc2c1)[C@@H]1C[C@@]1(C)[C@@H](NC(=O)OCc1ccccc1)c1ccccc1
AC50 [3]: 12.6 µM (inconclusive)

CC(C)CN(C(=O)c1cccs1)C1CCS(=O)(=O)C1 (stereo not drawn)
EC50 [1]: > 260 µM (inactive)

CCOCCn1c(CN(Cc2ccccc2)Cc2ccccc2)nc2c1c(=O)[nH]c(=O)n2C
AC50 [6]: 17.8 µM (inconclusive) | AC50 [3]: 39.8 µM (inconclusive)

O=C(N/C(=C/c1cccs1)c1nc2ccccc2[nH]1)c1ccccc1
AC50 [2]: 25.1 µM (inconclusive) | AC50 [5]: 7.94 µM (inconclusive) | AC50 [3]: 28.2 µM (inconclusive)

Cc1nc(N2CCC(C)CC2)c2c(C)c(C(=O)Nc3cccc(C(F)(F)F)c3)sc2n1
EC50 [1]: > 260 µM (inactive)

O=C(Nc1ccc(Cl)cn1)c1ccc(-c2ccc(Cl)c(Cl)c2)o1
EC50 [7]: > 112 µM (not active) | EC50 [8]: > 112 µM (not active)

O=C(NCCc1ccccc1)N1c2ccccc2Sc2ccccc21
EC50 [1]: > 260 µM (inactive)

CN(C)C(=O)c1ccc(-c2ccc3ncnc(Nc4ccccc4)c3c2)cc1
AC50 [3]: 12.6 µM (inconclusive) | AC50 [9]: 7.94 µM (inconclusive)

ClC(Cl)c1nnc(-c2ccccc2)c(-c2c[nH]c3ccccc23)n1
EC50 [1]: 81.5 µM (active)

COc1ccc(C(=O)N2CCC3(CC2)CN(c2ccc(-c4ccccc4)cc2)C3)cc1
AC50 [3]: 15.8 µM (inconclusive)

CCOc1ccc(/C=N/NC(=O)COc2ccccc2-c2ccccc2)cc1
AC50 [4]: 4.37 µM (active)

COC(=O)c1ccc(CSc2nnnn2-c2ccc(C)cc2C)o1
EC50 [1]: > 260 µM (inactive)

O=[N+]([O-])c1cc([N+](=O)[O-])c(Oc2c(F)cccc2F)cc1NN1CCCCC1
EC50 [1]: > 260 µM (inactive)

CCS(=O)(=O)c1ccc2oc(Nc3ccccc3Cl)nc2c1
EC50 [7]: 1.75 µM (active) | EC50 [8]: 7.7 µM (active)

COCCNC(=O)/C(C#N)=C/c1ccc(OC(=O)c2cccs2)c(OC)c1
EC50 [1]: > 260 µM (inactive)

COc1ccc(-c2coc3cc4oc(=O)c(CC(=O)O)c(C)c4cc23)cc1
EC50 [1]: > 260 µM (inactive)

Cc1nn(C)c(Oc2ccccc2)c1CCNS(=O)(=O)c1ccc(Cl)cc1
EC50 [1]: > 260 µM (inactive)

COC(=O)C1=C(C)N=C2SCCC(=O)N2C1c1ccc(OC(=O)c2ccco2)cc1 (stereo not drawn)
EC50 [7]: > 112 µM (not active) | EC50 [8]: > 112 µM (not active)

COc1ccccc1CNc1ccnc(-c2cccc(NS(C)(=O)=O)c2)n1
AC50 [3]: 39.8 µM (inconclusive)

COC(=O)[C@@]1(Cc2ccccc2)[C@H]2c3cc(C(=O)N4CCCC4)n(Cc4ccsc4Br)c3C[C@H]2CN1C(=O)c1ccccc1
AC50 [3]: 12.6 µM (inconclusive)

O=[N+]([O-])c1ccc(N/N=C/c2c[nH]c3ccccc23)c(S(=O)(=O)Nc2ccc(Cl)cc2)c1
AC50 [4]: 1.15 µM (active)

CCC(C)C1NC(=S)N(C2CCCCC2)C1=O (stereo not drawn)
EC50 [10]: > 120 µM (not active) | EC50 [11]: > 120 µM (not active) | AC50 [9]: 17.8 µM (inconclusive) | EC50 [12]: > 120 µM (not active)

C/C(NNc1ccccc1)=C1/C(=O)NC(=O)N(Cc2ccccc2)C1=O
AC50 [4]: 1.03 µM (active)

COc1ccc(N(CC(=O)N2CCc3ccccc32)S(=O)(=O)c2c(C)noc2C)cc1
EC50 [1]: 56.1 µM (active)

O=S(=O)(Nc1nc2ccccc2nc1N1CCN(c2ccccc2F)CC1)c1ccc(Cl)cc1
AC50 [4]: 4.82 µM (active)

COC(=O)c1c(NC(=O)/C=C/c2ccc3c(c2)OCO3)sc(C)c1C
AC50 [4]: 4.17 µM (active)

CC(C)NC[C@H]1CCc2cc(CO)c([N+](=O)[O-])cc2N1
AC50 [2]: 10 µM (inconclusive) | AC50 [3]: 6.31 µM (inconclusive)

C/C(Cn1cnc([N+](=O)[O-])n1)=N\NC(=O)c1ccccc1F
EC50 [13]: > 60 µM (not active) | EC50 [14]: 1.25 µM (active) | EC50 [1]: > 260 µM (inactive)

C/C(N)=C(/C#N)C(=O)CSc1nnc(-c2ccc3c(c2)OCO3)o1
EC50 [1]: > 260 µM (inactive)

COC(=O)[C@@]1(Cc2ccc(F)cc2)[C@H]2c3cc(C(=O)N(C)C)n(Cc4ccc(O)c(OC)c4)c3C[C@H]2CN1C(=O)c1ccccc1
AC50 [2]: 25.1 µM (inconclusive) | AC50 [3]: 20 µM (inconclusive)

Cc1oc(CC(C)C)cc1C(=O)Nc1cccc2ccccc12
AC50 [4]: 5 µM (active)

Cn1ccc2cc3c(cc21)CCN3C(=O)Nc1cccnc1
AC50 [3]: 31.6 µM (inconclusive) and 20 µM (inconclusive)

COc1ccc(C(C[N+](=O)[O-])C2(c3ccc(OC)c(OC)c3)C(=O)c3ccccc3C2=O)cc1 (stereo not drawn)
EC50 [1]: 13.3 µM (active)

Cc1ccccc1C(=O)N/N=C/c1ccncc1
AC50 [3]: 22.4 µM (inconclusive)

O=C(NC1CCCCC1)C(Cc1ccccc1)N1C(=O)C2C3CCC(C3)C2C1=O (stereo not drawn)
AC50 [5]: 0.1 µM (inconclusive) | AC50 [3]: 31.6 µM (inconclusive)

CCC(C)(C)NC(=O)C(c1ccc(C)cc1)N(Cc1cccs1)C(=O)c1ccc2c(c1)OCCO2 (stereo not drawn)
EC50 [1]: > 260 µM (inactive)

O=C(NCCCN1CCOCC1)c1ccc(-n2nc(C(F)(F)F)cc2-c2cccs2)cc1
EC50 [10]: 16.4 µM (active) | EC50 [11]: 34.9 µM (active) | EC50 [12]: 11.6 µM (active)

CN(C)/C=C(\C=N\OCc1ccc(Cl)cc1Cl)C(=O)Nc1ccc(Cl)c(Cl)c1
EC50 [15]: 0.618 µM (active) | EC50 [16]: 3.07 µM (active) | AC50 [4]: 1.5 µM (active)

COCC(C)OC(=O)C(C#N)c1nc2ccccc2nc1N1CCN(Cc2ccccc2)CC1 (stereo not drawn)
EC50 [10]: 23.7 µM (active) | EC50 [11]: > 120 µM (not active) | EC50 [12]: 17.6 µM (active)
